Assay results published in PubChem BioAssay (NCI).
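Five concentrations, 48 hours, 96-well plates. Definition used: TGI = concentration required for complete inhibition of growth.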

How the values were obtained:
Assay in all cases: DTP human tumour cell line panel, 48 h
[1] = test system: 786-0 renal
[2] = test system: A498 renal
[3] = test system: A549 NSCLC
[4] = test system: ACHN renal
[5] = test system: CAKI-1 renal
[6] = test system: DLD-1 colon
[7] = test system: DMS 273 small cell lung
[8] = test system: EKVX NSCLC
[9] = test system: HCC-2998 colon
[10] = test system: HCT-116 colon
[11] = test system: HCT-15 colon
[12] = test system: HL-60(TB) leukemia
[13] = test system: HOP-62 NSCLC
[14] = test system: HT29 colon
[15] = test system: IGROV1 ovarian
[16] = test system: K-562 leukemia
[17] = test system: KM12 colon
[18] = test system: KM20L2 colon
[19] = test system: LOX IMVI melanoma
[20] = test system: LXFL 529 NSCLC
[21] = test system: M14 melanoma
[22] = test system: M19-MEL melanoma
[23] = test system: MALME-3M melanoma
[24] = test system: MOLT-4 leukemia
[25] = test system: NCI-H226 lung
[26] = test system: NCI-H460 lung
[27] = test system: NCI-H522 lung
[28] = test system: OVCAR-3 ovarian
[29] = test system: OVCAR-4 ovarian
[30] = test system: OVCAR-5 ovarian
[31] = test system: OVCAR-8 ovarian
[32] = test system: RPMI-8226 leukemia
[33] = test system: RXF-631 renal
[34] = test system: SF-268 CNS
[35] = test system: SF-295 CNS
[36] = test system: SF-539 CNS
[37] = test system: SK-MEL-2 melanoma
[38] = test system: SK-MEL-28 melanoma
[39] = test system: SK-MEL-5 melanoma
[40] = test system: SK-OV-3 ovarian
[41] = test system: SN12C renal
[42] = test system: SNB-19 CNS
[43] = test system: SNB-75 CNS
[44] = test system: SNB-78 CNS
[45] = test system: SR leukemia
[46] = test system: SW-620 colon
[47] = test system: U251 CNS
[48] = test system: UACC-257 melanoma
[49] = test system: UACC-62 melanoma
[50] = test system: UO-31 renal
[51] = test system: XF 498 CNS
[52] = test system: CCRF-CEM leukemia
[53] = test system: COLO 205 colon
[54] = test system: DMS 114 small cell lung
[55] = test system: HOP-18 NSCLC
[56] = test system: HOP-92 NSCLC
[57] = test system: NCI-H23 lung
[58] = test system: RXF 393 renal
[59] = test system: TK-10 renal
[60] = test system: BT-549 breast
[61] = test system: DU-145 prostate
[62] = test system: HS 578T breast
[63] = test system: MCF7 breast
[64] = test system: MDA-MB-231 breast
[65] = test system: MDA-MB-435
[66] = test system: MDA-N
[67] = test system: NCI/ADR-RES ovarian
[68] = test system: PC-3 prostate
[69] = test system: T-47D breast

Measured: TGI

CCOC(=O)C1=C(C)N(NC(N)=O)C(C)(O)C12CCOC2=O (stereo not drawn)
> 100 µM: [1] | [2] | [3] | [4] | [5] | [6] | [7] | [8] | [9] | [10] | [11] | [12] | [13] | [14] | [15] | [16] | [17] | [18] | [19] | [20] | [21] | [22] | [23] | [24] | [25] | [26] | [27] | [28] | [29] | [30] | [31] | [32] | [33] | [34] | [35] | [36] | [37] | [38] | [39] | [40] | [41] | [42] | [43] | [45] | [46] | [47] | [48] | [49] | [50] | [51]
34.5 µM: [44]

CC(=O)C(CN(C)C)C(c1ccccc1)c1c(O)c2ccccc2oc1=O (stereo not drawn)
> 100 µM: [1] | [3] | [4] | [5] | [52] | [53] | [6] | [54] | [7] | [8] | [9] | [10] | [11] | [12] | [55] | [13] | [56] | [14] | [15] | [16] | [17] | [18] | [19] | [20] | [21] | [22] | [23] | [24] | [25] | [57] | [26] | [27] | [28] | [29] | [30] | [31] | [32] | [58] | [34] | [35] | [36] | [37] | [38] | [39] | [40] | [41] | [42] | [44] | [45] | [46] | [59] | [47] | [48] | [49] | [51]
88.5 µM: [43]

COC(=O)C(CBr)CBr
31.9 µM: [61]
4.76 µM: [27]
33.1 µM: [26]
3 µM: [53]
3.22 µM: [20]
3.97 µM: [32]
10.2 µM: [50]
4.29 µM: [16]
6.58 µM: [60]
31.2 µM: [30]
8.29 µM: [6]
13.3 µM: [42]
19.5 µM: [57]
16.4 µM: [24]
41.9 µM: [34]
7.09 µM: [28]
13.2 µM: [36]
28.1 µM: [25]
12.5 µM: [48]
4.54 µM: [51]
4.86 µM: [58]
8.83 µM: [31]
10.8 µM: [59]
3.63 µM: [56]
1.83 µM: [52]
36.3 µM: [3]
4.23 µM: [54]
21.5 µM: [8]
31.8 µM: [2]
25.1 µM: [39]
24.3 µM: [17]
10.9 µM: [9]
40.7 µM: [13]
3.59 µM: [44]
1.41 µM: [12]
7.22 µM: [69]
8.45 µM: [67]
9.36 µM: [38]
9.28 µM: [41]
8.96 µM: [33]
10.3 µM: [47]
19.4 µM: [62]
33.8 µM: [40]
4.93 µM: [23]
29.3 µM: [7]
31.4 µM: [43]
17.2 µM: [22]
4.72 µM: [21]
25.5 µM: [15]
8.91 µM: [1]
4.36 µM: [64]
9.22 µM: [66]
18.1 µM: [49]
3.11 µM: [46]
11.5 µM: [10]
10 µM: [5]
11 µM: [14]
7.75 µM: [19]
23 µM: [68]
3.75 µM: [11]
31.1 µM: [35]
8.58 µM: [29]
30.5 µM: [37]
20.6 µM: [63]
10.1 µM: [4] | [65]

CC1(C)C=N[N+]2(C)C3C=CC(CC3)C12 (stereo not drawn)
> 100 µM: [1] | [2] | [3] | [4] | [5] | [52] | [53] | [6] | [54] | [8] | [9] | [10] | [11] | [12] | [55] | [13] | [56] | [14] | [15] | [16] | [17] | [18] | [19] | [20] | [21] | [22] | [23] | [24] | [25] | [57] | [26] | [27] | [28] | [30] | [31] | [32] | [58] | [33] | [34] | [35] | [36] | [37] | [38] | [39] | [40] | [41] | [42] | [43] | [44] | [45] | [59] | [47] | [48] | [49] | [50]
